Among the data in patent US8349844B2, “Substituted pyrazolo [1,5-A] pyrimidines as metabotropic glutamate antagonists” (Hoffmann-La Roche Inc., priority 2005, dated 2013) are melting point and Ki values, retold here.

pKi: −log10 of the molar value.

In one data set the target is T1, rat mGlu2 receptor (Rattus norvegicus, UniProt P31421).
T1 construct: expressed in transfected cells; membranes prepared from them
The data set is described as follows: [3H]-LY354740 binding on mGlu2 transfected CHO cell membranes. The following applies: [3H]-LY354740 (10 nM) displacement. An excerpt:
[^3H]-LY354740 Binding on mGlu2 Transfected CHO Cell Membranes. Transfection and Cell Culture
cDNA encoding the rat mGlu2 receptor protein in pBluescript II was subcloned into the eukaryotic expression vector pcDNA I-amp from Invitrogen Ltd (Paisley, UK). This vector construct (pcD1mGR2) was co-transfected with a psvNeo plasmid encoding the gene for neomycin resistance, into CHO cells by a modified calcium phosphate method described by Chen & Okayama (1988). The cells were maintained in Dulbecco's Modified Eagle medium with reduced L-glutamine (2 mM final concentration) and 10% dialysed foetal calf serum from Gibco-Invitrogen (Carlsbad, Calif., USA). Selection was made in the presence of G-418 (1000 ug/ml final) and […]. Clones were identified by reverse transcription of 5 μg total RNA, followed by PCR using mGlu2 receptor specific primers 5′-[…]-3′ and 5′-[…]-3′ in 60 mM Tris HCl (pH 10), 15 mM (NH4)2SO4, 2 mM MgCl2, 25 units/ml Taq Polymerase with 30 cycles annealing at 60° C. for 1 min., extention at 72° C. for 30 s, and 1 min. 95° C. denaturation.
Cells, cultured as above, were harvested and washed three times with cold PBS and frozen at −80° C. The pellet was resuspended in cold 20 mM HEPES-NaOH buffer containing 10 mM EDTA (pH 7.4), and homogenised with a polytron (Kinematica, A G, Littau, Switzerland) for 10 s at 10 000 rpm. After centrifugation for 30 min. at 4° C., the pellet was washed once with the same buffer, and once with cold 20 mM HEPES-NaOH buffer containing 0.1 mM EDTA, (pH 7.4). Protein content was measured using the micro BCA method from Pierce-Perbio (Rockford, Ill., USA) using bovine serum albumin as standard.
After thawing, the membranes were resuspended in cold 50 mM Tris-HCl buffer containing 2 mM MgCl2 (pH 7) (binding buffer). The final concentration of the membranes in the assays was 25 μg protein/ml. Inhibition experiments were performed with membranes incubated with 10 nM [^3H]-LY354740 at room temperature, for 1 hour, in presence of various concentrations of the compound to be tested. Following the incubations, membranes were filtered onto Whatmann GF/B glass fiber filters and washed 5 times with cold binding buffer. Non specific binding was measured in the presence of 10 μM DCG IV. After transfer of the filters into plastic vials containing 10 ml of Ultima-gold scintillation fluid from Perkin-Elmer (Boston, Mass., USA), the radioactivity was measured by liquid scintillation in a Tri-Garb 2500 TR counter (Packard, Zürich, Switzerland).
The inhibition curves were fitted with a four parameter logistic equation giving IC50 values, and Hill coefficients.

T1 sequence (P31421 19-872): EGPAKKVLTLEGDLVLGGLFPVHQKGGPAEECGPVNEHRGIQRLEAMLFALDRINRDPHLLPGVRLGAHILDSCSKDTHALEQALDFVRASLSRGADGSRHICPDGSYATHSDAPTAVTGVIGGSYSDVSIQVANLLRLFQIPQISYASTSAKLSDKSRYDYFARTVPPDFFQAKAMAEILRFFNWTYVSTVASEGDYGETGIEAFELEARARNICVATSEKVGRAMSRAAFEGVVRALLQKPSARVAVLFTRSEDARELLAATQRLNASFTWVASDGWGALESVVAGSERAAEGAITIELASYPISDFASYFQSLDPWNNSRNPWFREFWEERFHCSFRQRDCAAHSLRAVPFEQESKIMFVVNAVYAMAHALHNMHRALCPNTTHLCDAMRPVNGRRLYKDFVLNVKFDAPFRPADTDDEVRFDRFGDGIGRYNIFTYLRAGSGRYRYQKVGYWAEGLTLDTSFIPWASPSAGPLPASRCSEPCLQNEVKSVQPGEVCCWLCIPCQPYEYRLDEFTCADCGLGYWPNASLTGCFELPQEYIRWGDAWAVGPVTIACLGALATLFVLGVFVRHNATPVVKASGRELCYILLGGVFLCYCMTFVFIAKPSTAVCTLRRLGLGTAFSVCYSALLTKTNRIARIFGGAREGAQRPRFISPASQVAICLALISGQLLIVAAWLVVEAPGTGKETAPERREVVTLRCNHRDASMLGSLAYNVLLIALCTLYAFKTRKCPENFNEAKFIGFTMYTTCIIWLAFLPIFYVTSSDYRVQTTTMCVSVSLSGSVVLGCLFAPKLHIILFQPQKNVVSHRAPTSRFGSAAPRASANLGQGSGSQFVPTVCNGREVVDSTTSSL

Take `NS(=O)(=O)c1ccc(-c2noc(-c3cnn4c(C(F)(F)F)cc(-c5ccc(C(F)(F)F)cc5)nc34)n2)cc1` [Example 1, 4-{5-[7-Trifluoromethyl-5-(4-trifluoromethyl-phenyl)-pyrazolo[1,5-a]pyrimidin-3-yl]-[1,2,4]oxadiazol-3-yl}-benzenesulfonamide]: the melting point (usually the temperature of the solid-liquid transition) was 275 °C. The pKi (as a rule, −log10 of the Ki, conventionally taken in molar units) on rat mGlu2 receptor is 8.25. Taken in the same sequence, the figures for `FC(F)(F)c1ccc(-c2cc(C(F)(F)F)n3ncc(-c4nc(-c5cccnc5)no4)c3n2)cc1` [Example 3, 3-(3-Pyridin-3-yl-[1,2,4]oxadiazol-5-yl)-7-trifluoromethyl-5-(4-trifluoromethyl-phenyl)-pyrazolo[1,5-a]pyrimidine] were 199 °C and 7.32.

`NS(=O)(=O)c1cccc(-c2noc(-c3cnc4c(C(F)(F)F)cc(-c5ccc(C(F)(F)F)cc5)cn34)n2)c1` [Example 11, 3-{5-[8-Trifluoromethyl-6-(4-trifluoromethyl-phenyl)-imidazo[1,2-a]pyridin-3-yl]-[1,2,4]oxadiazol-3-yl}-benzenesulfonamide] showed a melting point of 297 °C. The compound also gave a negative-log Ki (pKi) on rat mGlu2 receptor of 8.06. With `NS(=O)(=O)c1ccc(-c2noc(-c3cnn4c(C5CC5)cc(-c5ccc(Cl)cc5)nc34)n2)s1` [Example 20, 5-{5-[5-(4-Chloro-phenyl)-7-cydopropyl-pyrazolo[1,5-a]pyrimidin-3-yl]-[1,2,4]oxadiazol-3-yl}-thiophene-2-sulfonic acid amide], the melting point came out at 294 °C. Besides, the pKi on rat mGlu2 receptor was 7.79. Taken in the same sequence, the figures for `NS(=O)(=O)c1ccc(-c2nc(-c3ncn4c(C(F)(F)F)cc(-c5ccc(C(F)(F)F)cc5)nc34)no2)cc1` [Example 21, 4-{3-[4-Trifluoromethyl-2-(4-trifluoromethyl-phenyl)-imidazo[1,5-a]pyrimidin-8-yl]-[1,2,4]oxadiazol-5-yl}-benzenesulfonamide] were 303 °C and 7.99. Consider `Nc1ccc(-c2noc(-c3cnn4c(C(F)(F)F)cc(-c5ccc(C(F)(F)F)c(OCC(F)(F)F)c5)nc34)n2)cn1` [Example 70, 5-(5-{5-[3-(2,2,2-Trifluoro-ethoxy)-4-trifluoromethyl-phenyl]-7-trifluoromethyl-pyrazolo[1,5-a]pyrimidin-3-yl}-[1,2,4]oxadiazol-3-yl)-pyridin-2-ylamine], for which the melting point stood at 284 °C. Still for that read-out and setting: next, `Nc1ccc(-c2noc(-c3cnn4c(C(F)F)cc(-c5ccc(C(F)(F)F)c(OCC(F)(F)F)c5)nc34)n2)cn1` [Example 71, 5-(5-{7-Difluoromethyl-5-[3-(2,2,2-trifluoro-ethoxy)-4-trifluoromethyl-phenyl]-pyrazolo[1,5-a]pyrimidin-3-yl}-[1,2,4]oxadiazol-3-yl)-pyridin-2-ylamine]: 285 °C; `Nc1ccc(-c2noc(-c3cnn4c(C(F)F)cc(-c5ccc(C(F)(F)F)c(Cl)c5)nc34)n2)cn1` [Example 72, 5-{5-[5-(3-Chloro-4-trifluoromethyl-phenyl)-7-difluoromethyl-pyrazolo[1,5-a]pyrimidin-3-yl]-[1,2,4]oxadiazol-3-yl}-pyridin-2-ylamine]: 252 °C. `Nc1ccc(-c2noc(-c3cnn4c(C(F)(F)F)cc(-c5ccc(C(F)(F)F)c(Cl)c5)nc34)n2)cn1` [Example 73, 5-{5-[5-(3-Chloro-4-trifluoromethyl-phenyl)-7-trifluoromethyl-pyrazolo[1,5-a]pyrimidin-3-yl]-[1,2,4]oxadiazol-3-yl}-pyridin-2-ylamine] gave a melting point of 234 °C. Compound `Nc1ccc(-c2noc(-c3cnn4c(C(F)F)cc(-c5ccc(C(F)(F)F)c(F)c5)nc34)n2)cn1` [Example 74, 5-{5-[7-Difluoromethyl-5-(3-fluoro-4-trifluoromethyl-phenyl)-pyrazolo[1,5-a]pyrimidin-3-yl]-[1,2,4]oxadiazol-3-yl}-pyridin-2-ylamine] showed a melting point of 242 °C. Take `Nc1ccc(-c2noc(-c3cnn4c(C(F)(F)F)cc(-c5ccc(C(F)(F)F)c(F)c5)nc34)n2)cn1` [Example 75, 5-{5-[5-(3-Fluoro-4-trifluoromethyl-phenyl)-7-trifluoromethyl-pyrazolo[1,5-a]pyrimidin-3-yl]-[1,2,4]oxadiazol-3-yl}-pyridin-2-ylamine]: the melting point amounted to 233 °C. On the same count and under the same terms, next, `Nc1ccc(-c2noc(-c3cnn4c(C(F)(F)F)cc(-c5ccc(F)c(F)c5)nc34)n2)cn1` [Example 76, 5-{5-[5-(3,4-Difluoro-phenyl)-7-trifluoromethyl-pyrazolo[1,5-a]pyrimidin-3-yl]-[1,2,4]oxadiazol-3-yl}-pyridin-2-ylamine]: 262 °C; `Nc1ncc(-c2noc(-c3cnn4c(C(F)(F)F)cc(-c5ccc(F)c(F)c5)nc34)n2)cn1` [Example 78, 5-{5-[5-(3,4-Difluoro-phenyl)-7-trifluoromethyl-pyrazolo[1,5-a]pyrimidin-3-yl]-[1,2,4]oxadiazol-3-yl}-pyrimidin-2-ylamine]: 268 °C; `Nc1ncc(-c2noc(-c3cnn4c(C(F)(F)F)cc(-c5ccc(C(F)(F)F)c(F)c5)nc34)n2)cn1` [Example 79, 5-{5-[5-(3-Fluoro-4-trifluoromethyl-phenyl)-7-trifluoromethyl-pyrazolo[1,5-a]pyrimidin-3-yl]-[1,2,4]oxadiazol-3-yl}-pyrimidin-2-ylamine]: 270 °C. In turn, `Nc1ncc(-c2noc(-c3cnn4c(C(F)(F)F)cc(-c5ccc(C(F)(F)F)c(Cl)c5)nc34)n2)cn1` [Example 80, 5-{5-[5-(3-Chloro-4-trifluoromethyl-phenyl)-7-trifluoromethyl-pyrazolo[1,5-a]pyrimidin-3-yl]-[1,2,4]oxadiazol-3-yl}-pyrimidin-2-ylamine] yielded a melting point of 279 °C. The compound `Nc1ncc(-c2noc(-c3cnn4c(C(F)(F)F)cc(-c5ccc(Cl)c(Cl)c5)nc34)n2)cn1` [Example 81, 5-{5-[5-(3,4-Dichloro-phenyl)-7-trifluoromethyl-pyrazolo[1,5-a]pyrimidin-3-yl]-[1,2,4]oxadiazol-3-yl}-pyrimidin-2-ylamine] gave a melting point of 300 °C. `Nc1ncc(-c2noc(-c3cnn4c(C(F)(F)F)cc(-c5ccc(Cl)cc5)nc34)n2)cn1` [Example 82, 5-{5-[5-(4-Chloro-phenyl)-7-trifluoromethyl-pyrazolo[1,5-a]pyrimidin-3-yl]-[1,2,4]oxadiazol-3-yl}-pyrimidin-2-ylamine] displayed a melting point of 268 °C.

`Cc1cc(-c2cc(C(F)(F)F)n3ncc(-c4nc(-c5cnc(N)nc5)no4)c3n2)ccc1C(F)(F)F` [Example 83, 5-{5-[5-(3-Methyl-4-trifluoromethyl-phenyl)-7-trifluoromethyl-pyrazolo[1,5-a]pyrimidin-3-yl]-[1,2,4]oxadiazol-3-yl}-pyrimidin-2-ylamine] gave a melting point of 272 °C. `Cc1cc(-c2cc(C(F)(F)F)n3ncc(-c4nc(-c5cnc(N)nc5)no4)c3n2)ccc1Cl` [Example 84, 5-{5-[5-(4-Chloro-3-methyl-phenyl)-7-trifluoromethyl-pyrazolo[1,5-a]pyrimidin-3-yl]-[1,2,4]oxadiazol-3-yl}-pyrimidin-2-ylamine]: the melting point came to 272 °C.

As to `Nc1cc(-c2noc(-c3cnn4c(C(F)(F)F)cc(-c5ccc(Cl)cc5)nc34)n2)ccn1` [Example 85, 4-{5-[5-(4-Chloro-phenyl)-7-trifluoromethyl-pyrazolo[1,5-a]pyrimidin-3-yl]-[1,2,4]oxadiazol-3-yl}-pyridin-2-ylamine], the melting point came out at 252 °C. On the same count and under the same terms, next, `Nc1cc(-c2noc(-c3cnn4c(C(F)(F)F)cc(-c5ccc(Cl)c(Cl)c5)nc34)n2)ccn1` [Example 86, 4-{5-[5-(3,4-Dichloro-phenyl)-7-trifluoromethyl-pyrazolo[1,5-a]pyrimidin-3-yl]-[1,2,4]oxadiazol-3-yl}-pyridin-2-ylamine]: 262 °C; `Cc1cc(-c2cc(C(F)(F)F)n3ncc(-c4nc(-c5ccnc(N)c5)no4)c3n2)ccc1C(F)(F)F` [Example 87, 4-{5-[5-(3-Methyl-4-trifluoromethyl-phenyl)-7-trifluoromethyl-pyrazolo[1,5-a]pyrimidin-3-yl]-[1,2,4]oxadiazol-3-yl}-pyridine-2-ylamine]: 245 °C.
